Laboratory results published in article PMC8534150, “New Insights to Regulation of Fructose-1,6-bisphosphatase during Anoxia in Red-Eared Slider, Trachemys scripta elegans” (Biomolecules, 2021).

How the values were obtained:
Test in all cases: coupled phosphoglucoisomerase / glucose-6-phosphate dehydrogenase assay, NADP+ reduction at […] nm
Format in all cases: biochemical, Trachemys scripta elegans
FBPase (control liver) [1] = target: T1, FBPase (control liver); settings: inhibitor, allosteric, pH 7.2 imidazole, 5 mM MgSO4, 0.2 mM NADP+, 22 °C, FBP 0.1 mM as optimal assay
T1 construct: gene FBP1; native, purified from liver of normoxic control turtles (phosphocellulose, CM cellulose); ~37 kDa on SDS-PAGE; band sent for mass spectrometry; tetramer in homology model

FBPase (anoxic liver) [2] = target: T2, FBPase (anoxic liver); settings: inhibitor, allosteric; pH 7.2 imidazole, 5 mM MgSO4, 0.2 mM NADP+, 22 °C; FBP 0.1 mM as optimal assay; enzyme from anoxic liver
T2 construct: gene FBP1; native, purified from liver of 20 h anoxic turtles

FBPase (control liver) [3] = target: T1, FBPase (control liver); settings: activation constant, activator, pH 7.2 imidazole, 5 mM MgSO4, 22 °C
FBPase (anoxic liver) [4] = target: T2, FBPase (anoxic liver); settings: activation constant, activator, pH 7.2 imidazole, 5 mM MgSO4, 22 °C, enzyme from anoxic liver
FBPase (anoxic liver) [5] = system: T2, FBPase (anoxic liver); settings: pH 7.2 imidazole, 5 mM MgSO4, 0.2 mM NADP+, 22 °C; paper states subsaturating FBP (0.24 µM); enzyme from anoxic liver
FBPase (control liver) [6] = system: T1, FBPase (control liver); settings: pH 7.2 imidazole, 5 mM MgSO4, 0.2 mM NADP+, 22 °C; paper states subsaturating FBP (0.24 µM)

| SMILES | IC50 (FBPase (anoxic liver) [2]) | EC50 (FBPase (control liver) [3]) | EC50 (FBPase (anoxic liver) [4]) | other results |
| --- | --- | --- | --- | --- |
| Nc1ncnc2c1ncn2[C@@H]1O[C@H](COP(=O)(O)OP(=O)(O)OP(=O)(O)O)[C@@H](O)[C@H]1O [ATP.Mg] |  |  |  | EC50 (FBPase (control liver) [3]; ATP.Mg 1:1): 144 ± 7 µM; EC50 (FBPase (anoxic liver) [4]; ATP.Mg 1:1): 25 ± 0.9 µM |
| C[C@H](N)C(=O)O [Alanine] |  | 2.85 ± 0.24 µM | 3.3 ± 0.1 µM |  |
| O=P(O)(O)OC[C@H]1OC(O)(COP(=O)(O)O)[C@@H](O)[C@@H]1O (stereo partly drawn) [FBP] |  |  |  | Km (FBPase (anoxic liver) [5]): 59.8 ± 5.2 µM; Km (FBPase (control liver) [6]): 26.9 ± 3 µM |
| C=C(OP(=O)(O)O)C(=O)O [PEP] |  | 0.33 ± 0.09 µM | 3.3 ± 0.2 µM |  |

More lines, main results first:

| IC50 (FBPase (anoxic liver) [2]) | EC50 (FBPase (control liver) [3]) | EC50 (FBPase (anoxic liver) [4]) | SMILES | other results |
| --- | --- | --- | --- | --- |
| 8.3 ± 0.6 µM |  |  | Nc1ncnc2c1ncn2[C@@H]1O[C@H](COP(=O)(O)OP(=O)(O)O)[C@@H](O)[C@H]1O [ADP] | IC50 (FBPase (control liver) [1]; text b33 prints mM for this value, table µM): 0.0118 ± 0.0003 mM |
| 3.6 ± 0.3 µM |  |  | Nc1ncnc2c1ncn2[C@@H]1O[C@H](COP(=O)(O)O)[C@@H](O)[C@H]1O [AMP] | IC50 (FBPase (control liver) [1]): 0.0061 ± 0.0001 mM |
